pKi: −log10 of the molar value.
Columns and labels:
[1] = molecular target: T1, Muscarinic acetylcholine receptor M5 (Homo sapiens, UniProt P08912); assay: Binding affinity of compound was determined towards human Muscarinic acetylcholine receptor M5 using [3H]QNB radioligand
T1 sequence (P08912 whole entry): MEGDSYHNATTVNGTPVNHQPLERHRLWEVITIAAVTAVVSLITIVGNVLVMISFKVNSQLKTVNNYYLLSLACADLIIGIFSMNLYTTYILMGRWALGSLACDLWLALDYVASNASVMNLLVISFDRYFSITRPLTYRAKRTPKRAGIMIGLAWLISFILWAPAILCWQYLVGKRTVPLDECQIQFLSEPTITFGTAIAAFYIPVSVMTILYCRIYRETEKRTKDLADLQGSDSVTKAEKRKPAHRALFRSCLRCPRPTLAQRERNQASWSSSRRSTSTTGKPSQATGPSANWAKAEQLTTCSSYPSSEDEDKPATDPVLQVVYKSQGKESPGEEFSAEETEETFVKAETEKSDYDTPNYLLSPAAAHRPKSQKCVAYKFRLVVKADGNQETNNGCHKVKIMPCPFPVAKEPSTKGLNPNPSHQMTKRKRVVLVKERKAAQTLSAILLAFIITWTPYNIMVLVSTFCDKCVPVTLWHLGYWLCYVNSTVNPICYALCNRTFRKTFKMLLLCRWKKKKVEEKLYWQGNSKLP

[2] = molecular target: T2, Muscarinic acetylcholine receptor M2 (Homo sapiens, UniProt P08172); assay: Binding affinity of compound was determined towards human Muscarinic acetylcholine receptor M2 using [3H]QNB radioligand
T2 sequence (P08172 whole entry): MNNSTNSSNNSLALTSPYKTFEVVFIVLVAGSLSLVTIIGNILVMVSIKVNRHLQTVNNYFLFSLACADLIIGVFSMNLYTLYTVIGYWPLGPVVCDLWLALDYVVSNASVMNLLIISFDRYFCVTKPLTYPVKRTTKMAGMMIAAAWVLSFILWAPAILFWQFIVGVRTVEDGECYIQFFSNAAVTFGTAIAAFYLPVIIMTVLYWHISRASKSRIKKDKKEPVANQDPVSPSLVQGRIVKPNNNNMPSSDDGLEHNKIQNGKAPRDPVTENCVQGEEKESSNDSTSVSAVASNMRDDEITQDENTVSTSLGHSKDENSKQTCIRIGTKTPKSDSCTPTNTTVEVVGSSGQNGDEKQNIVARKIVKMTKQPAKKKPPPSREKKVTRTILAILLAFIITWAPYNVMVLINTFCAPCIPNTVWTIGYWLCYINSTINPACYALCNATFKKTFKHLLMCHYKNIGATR

Molecule `CCOC(=O)C1CN2CC(CCC2COCc2ccccc2)C1=O` (stereo not drawn) [exo-8-Benzyloxymethyl-4-hydroxy-1-aza-bicyclo[3.3.1]non-3-ene-3-carboxylic acid ethyl ester] has a pKi [1] of 6.25 and a pKi [2] of 7.10.

— BindingDB's records for doi:10.1021/jm020572p (University of North Carolina at Chapel Hill, 2003)
